What was measured:
Assay type in all cases: cell-based
pEGFR = test: Western blot of pEGFR in renal cancer cell lines; conditions: A498, 769-P, RENCA, ACHN; one-hour pre-treatment, 10-minute EGF stimulation
Source text: (§1) Whole cell lysates in 1× sample buffer (Invitrogen) were electrophoresed on a 4%-12% Bis-Tris gel. After transferring the proteins onto a PVDF membrane, the blot was probed by antibodies, and the signal was detected using the Odyssey imager (LI-COR Biosciences). Paired mouse and rabbit antibodies were used to probe the total protein, and the corresponding phosphorylated proteins. The effect of ibrutinib treatment, with and without EGF stimulation/induction, on various proteins was studied. A one-hour pre-treatment with ibrutinib and a 10-minute stimulation with EGF was conducted. […] As such, ibrutinib ameliorates the effect (i.e., the undesired effects) of mTOR inhibitor alone.

pAkt = test: Western blot of pAkt in renal cancer cell lines
Source text: as §1
(§2) Cell lysates were prepared from RCC cells which were treated with different concentrations of pazopanib for overnight incubation. Antibodies that correlate to the proteins of interest were used for detection.

pERK = test: Western blot of pERK in renal cancer cell lines; conditions: A498, 769-P, RENCA, ACHN; one-hour pre-treatment, 10-minute EGF stimulation
Source text: as §1, §2

Structure (SMILES)	EGF-induced pEGFR (pEGFR)	pAkt (pAkt; A498, 769-P, RENCA, ACHN, one-hour pre-treatment, 10-minute EGF stimulation)	pERK (pERK)	pAkt (both pAkt T308 and pAkt S473) (pAkt; ACHN cell line, 24 h treatment, FIG. 8)
C=CC(=O)N1CCC[C@@H](n2nc(-c3ccc(Oc4ccccc4)cc3)c3c(N)ncnc32)C1 [ibrutinib, 1-((R)-3-(4-amino-3-(4-phenoxyphenyl)-1H-pyrazolo[3,4-d]pyrimidin-1-yl)piperidin-1-yl)prop-2-en-1-one]	inhibits EGF-induced pEGFR	limited impacts	limited impacts	
CO[C@H]1C[C@@H]2CC[C@@H](C)[C@@](O)(O2)C(=O)C(=O)N2CCCC[C@H]2C(=O)O[C@H]([C@H](C)C[C@@H]2CC[C@@H](OCCO)[C@H](OC)C2)CC(=O)[C@H](C)/C=C(\C)[C@@H](O)[C@@H](OC)C(=O)[C@H](C)C[C@H](C)/C=C/C=C/C=C/1C [everolimus]				induced up-regulation of pAkt
